How the values were obtained:
[1] = target: T1, P-type amylase (Calibzyme P) (Homo sapiens, UniProt P04746); experiment: amylase isozyme activity assay with potassium thiocyanate as activator, P-type amylase sample; assay type: biochemical; details: for Change in absorbance, Containing Antibody (Composition A) / Change in absorbance, Without antibody (Composition B) / Relative sensitivity / Percent residual enzyme activity: P-type amylase; for Relative sensitivity: G3CNP at 900 mM = 100; for Percent residual enzyme activity: composition A/B
T1 construct: purchased International Reagents Corporation Calibzyme P
T1 sequence (P04746 16-511): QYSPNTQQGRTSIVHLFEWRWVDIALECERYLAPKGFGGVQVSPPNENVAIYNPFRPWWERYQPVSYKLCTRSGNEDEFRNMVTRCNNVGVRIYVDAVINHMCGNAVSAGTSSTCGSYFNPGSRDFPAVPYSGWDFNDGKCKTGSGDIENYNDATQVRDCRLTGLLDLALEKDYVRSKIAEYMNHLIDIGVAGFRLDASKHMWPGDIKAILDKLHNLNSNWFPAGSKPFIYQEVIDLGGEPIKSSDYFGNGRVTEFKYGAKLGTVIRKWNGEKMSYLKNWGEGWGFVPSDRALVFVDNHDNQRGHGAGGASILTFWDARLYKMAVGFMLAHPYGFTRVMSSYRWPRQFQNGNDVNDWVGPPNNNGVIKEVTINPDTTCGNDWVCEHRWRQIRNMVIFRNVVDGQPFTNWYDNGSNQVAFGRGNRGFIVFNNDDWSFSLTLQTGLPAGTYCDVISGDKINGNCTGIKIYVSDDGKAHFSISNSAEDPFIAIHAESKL
Experimental: A reagent for amylase isozyme activity assay comprising each composition as mentioned below was prepared. In the Table showing the composition, GalG2CNP (Example) is 2-chloro-4-nitrophenyl 4-O-β-D-galactopyranosylmaltoside, and G3CNP (Comparative Example) is 2-chloro-4-nitrophenylmaltotrioside.
S-type amylase-inhibiting antibody 88E8 (manufactured by Roche Diagnostics K.K.) 20 mg/L
S-type amylase-inhibiting antibody 66C7 (manufactured by Roche Diagnostics K.K.) 5 mg/L
(§1) Substrate (GalG2CNP (Example) or G3CNP (Comparative Example)) 2.6 mM
(2) P-type Amylase (Calibzyme P, Manufactured by International Reagents Corporation)
Each sample (0.05 mL was added to the reagent A (3 mL) and the reagent B (3 mL), respectively, and the mixtures were allowed to stand at 37° C. for 3 minutes. Then, the change in absorbance at 405 nm was assayed, and the change in absorbance per minute was calculated. The results are shown in Tables 1 and 2.
In the Tables, P is the case where P-type amylase was used as the sample, and S is the case where S-type amylase was used.
Percent residual enzyme activity (%)=(change in absorbance of composition A)/(change in absorbance of composition B)×100
Relative sensitivity (%)=(change in absorbance of composition B)/(change in absorbance of Comparative Example wherein potassium thiocyanate was 900 mM)×100

S-type amylase = target: T2, S-type amylase (Homo sapiens, UniProt P0DUB6); experiment: S-type amylase activity assay of serum by subtraction (reagent F minus reagent G); assay type: biochemical; details: for S-type amylase activity value: change in absorbance with reagent F minus reagent G
T2 construct: Serum (1, 2 or 3); from tissue; host or cells: serum
T2 sequence (P0DUB6 16-511): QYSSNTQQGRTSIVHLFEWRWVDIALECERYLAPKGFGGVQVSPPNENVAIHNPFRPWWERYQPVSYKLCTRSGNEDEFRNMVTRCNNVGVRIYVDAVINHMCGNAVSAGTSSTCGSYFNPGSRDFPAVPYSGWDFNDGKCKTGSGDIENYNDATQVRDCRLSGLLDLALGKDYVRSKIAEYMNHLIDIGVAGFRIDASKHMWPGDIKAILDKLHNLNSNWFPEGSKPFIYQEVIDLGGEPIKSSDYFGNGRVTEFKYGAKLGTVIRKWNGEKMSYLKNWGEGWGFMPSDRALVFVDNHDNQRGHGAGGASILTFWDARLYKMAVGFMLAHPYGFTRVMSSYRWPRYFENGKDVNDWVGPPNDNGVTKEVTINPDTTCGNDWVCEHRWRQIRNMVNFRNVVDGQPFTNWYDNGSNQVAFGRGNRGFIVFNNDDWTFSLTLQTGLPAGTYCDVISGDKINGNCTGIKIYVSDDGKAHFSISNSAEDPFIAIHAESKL
Experimental: Potassium thiocyanate 140 mM
as §1
S-type amylase inhibitory antibody 88E8 (manufactured by Roche Diagnostics K.K.) 15 mg/L
S-type amylase inhibitory antibody 66C7 (manufactured by Roche Diagnostics K.K.) 1.25 mg/L
(1) Distilled Water(Blank)
Each of the above-mentioned reagents (0.05 mL) was added to the above reagent F (3 mL) and the mixtures were left standing at 37° C. for 3 minutes. Then, change in absorbance at 405 nm was assayed and change in absorbance per minute was calculated (change in absorbance a). The same procedure was repeated using reagent G and change in absorbance per minute was calculated (change in absorbance b). Then, change in absorbance b was subtracted from change in absorbance a to give change in absorbance c, which was converted to S-type amylase activity value at this composition using the molecular extinction coefficient of CNP.

Change in absorbance, Containing Antibody (Composition A) ([1]; potassium thiocyanate 0 mM): 26.2 mABS/min
Change in absorbance, Without antibody (Composition B) ([1]; potassium thiocyanate 0 mM): 26.7 mABS/min
Relative sensitivity ([1]; potassium thiocyanate 0 mM): 55.7%
Percent residual enzyme activity ([1]; potassium thiocyanate 0 mM): 98.1%
Change in absorbance, Containing Antibody (Composition A) ([1]; potassium thiocyanate 50 mM): 40.6 mABS/min
Change in absorbance, Without antibody (Composition B) ([1]; potassium thiocyanate 50 mM): 42.1 mABS/min
Relative sensitivity ([1]; potassium thiocyanate 50 mM): 87.9%
Percent residual enzyme activity ([1]; potassium thiocyanate 50 mM): 96.4%
Change in absorbance, Containing Antibody (Composition A) ([1]; potassium thiocyanate 100 mM): 49.3 mABS/min
Change in absorbance, Without antibody (Composition B) ([1]; potassium thiocyanate 100 mM): 51.1 mABS/min
Relative sensitivity ([1]; potassium thiocyanate 100 mM): 106.7%
Percent residual enzyme activity ([1]; potassium thiocyanate 100 mM): 96.5%
Change in absorbance, Containing Antibody (Composition A) ([1]; potassium thiocyanate 140 mM): 52.4 mABS/min
Change in absorbance, Without antibody (Composition B) ([1]; potassium thiocyanate 140 mM): 56.0 mABS/min
Relative sensitivity ([1]; potassium thiocyanate 140 mM): 116.9%
Percent residual enzyme activity ([1]; potassium thiocyanate 140 mM): 93.6%
Change in absorbance, Containing Antibody (Composition A) ([1]; potassium thiocyanate 200 mM): 59.5 mABS/min
Change in absorbance, Without antibody (Composition B) ([1]; potassium thiocyanate 200 mM): 61.9 mABS/min
Relative sensitivity ([1]; potassium thiocyanate 200 mM): 129.2%
Percent residual enzyme activity ([1]; potassium thiocyanate 200 mM): 96.1%
Change in absorbance, Containing Antibody (Composition A) ([1]; potassium thiocyanate 300 mM): 66.6 mABS/min
Change in absorbance, Without antibody (Composition B) ([1]; potassium thiocyanate 300 mM): 69.1 mABS/min
Relative sensitivity ([1]; potassium thiocyanate 300 mM): 144.3%
Percent residual enzyme activity ([1]; potassium thiocyanate 300 mM): 96.4%
Change in absorbance, Containing Antibody (Composition A) ([1]; potassium thiocyanate 400 mM): 70.3 mABS/min
Change in absorbance, Without antibody (Composition B) ([1]; potassium thiocyanate 400 mM): 71.7 mABS/min
Relative sensitivity ([1]; potassium thiocyanate 400 mM): 149.7%
Percent residual enzyme activity ([1]; potassium thiocyanate 400 mM): 98.0%
Change in absorbance, Containing Antibody (Composition A) ([1]; potassium thiocyanate 500 mM): 71.3 mABS/min
Change in absorbance, Without antibody (Composition B) ([1]; potassium thiocyanate 500 mM): 70.9 mABS/min
Relative sensitivity ([1]; potassium thiocyanate 500 mM): 148.0%
Percent residual enzyme activity ([1]; potassium thiocyanate 500 mM): 100.6%
Change in absorbance, Containing Antibody (Composition A) ([1]; potassium thiocyanate 600 mM): 70.4 mABS/min
Change in absorbance, Without antibody (Composition B) ([1]; potassium thiocyanate 600 mM): 68.0 mABS/min
Relative sensitivity ([1]; potassium thiocyanate 600 mM): 142.0%
Percent residual enzyme activity ([1]; potassium thiocyanate 600 mM): 103.5%
Change in absorbance, Containing Antibody (Composition A) ([1]; potassium thiocyanate 700 mM): 67.9 mABS/min
Change in absorbance, Without antibody (Composition B) ([1]; potassium thiocyanate 700 mM): 67.2 mABS/min
Relative sensitivity ([1]; potassium thiocyanate 700 mM): 140.3%
Percent residual enzyme activity ([1]; potassium thiocyanate 700 mM): 101.0%
Change in absorbance, Containing Antibody (Composition A) ([1]; potassium thiocyanate 800 mM): 63.7 mABS/min
Change in absorbance, Without antibody (Composition B) ([1]; potassium thiocyanate 800 mM): 62.6 mABS/min
Relative sensitivity ([1]; potassium thiocyanate 800 mM): 130.7%
Percent residual enzyme activity ([1]; potassium thiocyanate 800 mM): 101.8%
Change in absorbance, Containing Antibody (Composition A) ([1]; potassium thiocyanate 900 mM): 61.6 mABS/min
Change in absorbance, Without antibody (Composition B) ([1]; potassium thiocyanate 900 mM): 60.1 mABS/min
Relative sensitivity ([1]; potassium thiocyanate 900 mM): 125.5%
Percent residual enzyme activity ([1]; potassium thiocyanate 900 mM): 102.5%
relative sensitivity of P-type amylase as multiple of the standard sensitivity ([1]; potassium thiocyanate 200 mM, standard = G3CNP at 900 mM): about 1.3
S-type amylase activity value (S-type amylase; Serum 1): 44.8 IU/L
S-type amylase activity value (S-type amylase; Serum 2): 167.7 IU/L
S-type amylase activity value (S-type amylase; Serum 3): 140.7 IU/L
sensitivity (change in absorbance) compared with Comparative Example (S-type amylase; Table 6, serum samples): superior sensitivity
Blank, change in absorbance per minute (S-type amylase; distilled water as sample, compositions F and G): 0.0003 ABS/min
SMILES: O=[N+]([O-])c1ccc(O[C@H]2O[C@H](CO)[C@@H](O[C@H]3O[C@H](CO)[C@@H](O[C@@H]4O[C@H](CO)[C@H](O)[C@H](O)[C@H]4O)[C@H](O)[C@H]3O)[C@H](O)[C@H]2O)c(Cl)c1 [GalG2CNP, 2-chloro-4-nitrophenyl 4-O-β-D-galactopyranosylmaltoside]

From patent publication US6350585B1, “Reagent for assay of amylase isozyme activity” (priority 1998, dated 2002)
